Where a name gives a salt, the structure may show the parent alone. Calls of active or inactive are those of the source. The rule behind the calls is not given here.
What was measured:
[1] = test system: Trypanosoma brucei rhodesiense; experiment: Antitrypanosomal activity against Trypanosoma brucei rhodesiense; type: functional, organism-based
[2] = test system: Trypanosoma cruzi; experiment: Antitrypanosomal activity against Trypanosoma cruzi; type: functional, organism-based
[3] = test system: Leishmania donovani; experiment: Antileishmanial activity against Leishmania donovani axenic amastigotes; type: functional, organism-based
[4] = test system: Plasmodium falciparum; experiment: Antimalarial activity against chloroquine and pyrimethamine-resistant Plasmodium falciparum K1 by [3H]hypoxanthine incorporation assay; type: functional, organism-based
[5] = test system: L6; experiment: (§1) Toxicity against rat L6 cells; type: cell-based; conditions: l6
[6] = as §1; type: cell-based; conditions: rat, L6 cells
[7] = test system: Plasmodium falciparum; experiment: Antimalarial activity against chloroquine-sensitive Plasmodium falciparum FCR3/Gambia; type: functional; conditions: FCR-3/Gambia
[8] = test system: FM3A; experiment: Cytotoxicity in mouse FM3A cells; type: cell-based
[9] = Selectivity index, ratio of IC50 for mice (Mus musculus) FM3A cells to IC50 for chloroquine-sensitive Plasmodium falciparum FCR3/Gambia; type: toxicity, cell-based; conditions: read-out: Ratio IC50
[10] = Inhibition of beta-hematin formation by BHIA assay; type: functional
[11] = test system: Nucleic Acid; experiment: Displacement of methyl green dye from DNA; type: nucleic-acid assay
[12] = test system: Plasmodium falciparum; experiment: Antimalarial activity against Plasmodium falciparum isolates; type: functional, organism-based
[13] = test system: Plasmodium berghei; experiment: Antimalarial activity against Plasmodium berghei ANKA infected in Swiss mice (Mus musculus) assessed as parasitaemia level at 10 mg/kg, intraperitoneally dosed for 5 consecutive days measured 4 days post infection; conditions: route intraperitoneal
[14] = test system: Plasmodium berghei; experiment: Antimalarial activity against Plasmodium berghei ANKA infected in Swiss mice (Mus musculus) assessed as mice (Mus musculus) survival at 10 mg/kg, intraperitoneally dosed for 5 consecutive days measured 7 days post infection; conditions: ip, 168 h
[15] = test system: Plasmodium berghei; experiment: Antimalarial activity against Plasmodium berghei ANKA infected in Swiss mice (Mus musculus) assessed as suppression of parasitaemia at 10 mg/kg, intraperitoneally dosed for 5 consecutive days measured 4 days post infection relative to untreated control; conditions: route intraperitoneal
[16] = test system: Plasmodium falciparum; experiment: Antimalarial activity against chloroquine-resistant Plasmodium falciparum W2; type: functional, organism-based
[17] = test system: THP-1; experiment: Cytotoxicity in human THP1 cells; type: cell-based
[18] = test system: Plasmodium falciparum; experiment: Antimalarial activity against chloroquine-sensitive Plasmodium falciparum D6; type: functional, organism-based
[19] = test system: Plasmodium falciparum; experiment: Antimalarial activity against chloroquine and pyrimethamine-resistant Plasmodium falciparum K1; type: functional, organism-based

| Structure (SMILES) | IC50 ([1]; Trypanosoma brucei) [µM] | IC50 ([2]; Trypanosoma cruzi) [µM] | IC50 ([3]; Leishmania donovani) [µM] | IC50 ([4]; Plasmodium falciparum, K1) [µM] | IC50 [6] [µM] | also measured |
| --- | --- | --- | --- | --- | --- | --- |
| Cn1cc2ccccc2c2nc3ccccc3c1-2 [listing 1 of 2 here] | 0.55 | 1.53 | – | – | – | IC50 [3]: 16.8 µM; IC50 [4]: 0.57 µM; IC50 [5]: 2.2 µM |
| Cn1cc2ccccc2c2ccnc1-2 | 8.4 | 40.9 | 97.5 | 7.8 | 153 | – |
| Cn1cccc2nc3ccccc3c1-2 [listing 1 of 2 here] | – | > 160 | > 160 | – | – | IC50 [1]: 138 µM; IC50 [4]: 0.48 µM; IC50 [5]: 179 µM |
| CCCCCCCCCCCCCCCCOP(=O)([O-])OCC[N+](C)(C)C [MILTEFOSINE] | – | – | – | – | 58.4 | – |
| C=Cc1c2[nH]c3ccccc3c2c(OC)c[n+]1CC | – | – | – | – | – | IC50 [7]: < 1 µM; IC50 [8]: > 10 µM; selectivity ratio [9]: > 32 |
| Nc1nc(N)nc(Nc2ccc([As]3SCC(CO)S3)cc2)n1 (stereo not drawn) [MELARSOPROL] | – | – | – | – | 8.6 | – |
| C[n+]1cc2[nH]c3ccccc3c2c2ccccc21 [ISONEOCRYPTOLEPINE HYDROCHLORIDE] | 6.48 | 21 | 75.4 | 0.23 | – | inhibition [10]: Active; inhibition [11]: Active |
| Cn1ccc2c3ccccc3nc-2c1 | 93.7 | > 160 | 92.1 | 0.45 | > 490 | inhibition [10]: inactive; IC50 [11]: > 3800 µM |
| C=Cc1ncc(OC)c2c1[nH]c1ccccc12 | – | – | – | – | – | IC50 [12]: 10.7 µM |
| Cn1ccc2nc3ccccc3c-2c1 [listing 1 of 2 here] | – | > 160 | > 160 | 2.1 | 390 | IC50 [1]: 138 µM |
| C[n+]1ccc2c(c1)[nH]c1ccccc12 [listing 1 of 2 here] | – | – | – | – | – | inhibition [10]: inactive |
| CCN(CC)CCCC(C)Nc1ccnc2cc(Cl)ccc12 (stereo not drawn) [CHLOROQUINE] | – | – | – | – | 43.1 | Activity [13]: 5.24%; survival at 10 mg/kg [14]: 100%; Activity [15]: 86.3% |
| Cc1nccc2c1[nH]c1ccccc12 [HARMAN] | – | – | – | – | – | IC50 [16]: 7.1 µM; IC50 [17]: 121 µM; IC50 [18]: 12.1 µM |
| Cn1cccc2c3ccccc3nc1-2 [listing 1 of 2 here] | – | 64.5 | – | 13 | 236 | IC50 [1]: 34 µM; IC50 [3]: > 95 µM |
| Cn1cc2ccccc2c2c3ccccc3nc1-2 | – | – | 4.8 | 0.04 | – | IC50 [1]: 3.33 µM; IC50 [2]: 20.7 µM; IC50 [5]: 1.3 µM; IC50 [10]: 2.76 molar equivalents; IC50 [11]: 81 µM |
| Cn1cccc2c3ccccc3nc1-2 [listing 2 of 2 here] | 21.3 | – | > 160 | – | – | IC50 [2]: 89.2 µM; IC50 [4]: 14.7 µM; IC50 [5]: 300 µM |
| C[n+]1c2ccccc2cc2[n-]c3ccccc3c21 [CRYPTOLEPINE HYDROCHLORIDE] | 0.6 | 0.22 | 2.68 | 0.12 | – | inhibition [10]: Active; inhibition [11]: Active |
| COc1ccc2c3cc[n+](C)c(C)c3n(C)c2c1 | – | – | – | – | – | IC50 [7]: < 1 µM; IC50 [8]: > 10 µM; selectivity ratio [9]: > 32 |

| Structure (SMILES) | IC50 ([1]; Trypanosoma brucei) [µM] | IC50 ([2]; Trypanosoma cruzi) [µM] | IC50 ([3]; Leishmania donovani) [µM] | IC50 ([4]; Plasmodium falciparum, K1) [µM] | IC50 [6] [µM] | also measured |
| --- | --- | --- | --- | --- | --- | --- |
| Cn1c2nc3ccccc3c-2cc2ccccc21 [NEOCRYPTOLEPINE HYDROCHLORIDE] | 2.23 | 2.01 | 49.5 | 2.61 | – | inhibition [10]: Active; inhibition [11]: Active |
| O=C(Cn1ccnc1[N+](=O)[O-])NCc1ccccc1 [BENZNIDAZOLE] | – | 1.25 | – | – | > 90 | – |
| c1ccc2c(c1)cnc1[nH]ccc12 | 43.5 | 69.6 | 30.3 | 23.2 | 119 | – |
| c1ccc2c(c1)ncc1[nH]ccc12 | 25.5 | 81 | 183 | 6.4 | 173 | – |
| C[n+]1ccc2c(c1)[nH]c1ccccc12 [NORMELINONINE F HYDROCHLORIDE] | – | – | – | – | – | IC50 [19]: 13.6 µM |
| Cn1ccc2nc3ccccc3c-2c1 [listing 2 of 2 here] | 109 | – | – | – | – | IC50 [2]: > 95 µM; IC50 [3]: > 95 µM; IC50 [4]: 2.4 µM; IC50 [5]: > 290 µM |
| C[n+]1ccc2c(c1)[nH]c1ccccc12 [listing 2 of 2 here] | 155 | > 95 | 52.3 | 0.34 | > 290 | IC50 [11]: > 2800 µM |
| Cn1cc2nccc-2c2ccccc21 | 31.5 | 76.8 | 169 | 3.2 | 160 | – |
| Cn1cc2ccccc2c2c3ccccc3nc1-2.I | 2.59 | 11.9 | – | – | 1.5 | IC50 [3]: 6.6 µM; IC50 [4]: 0.032 µM; IC50 [10]: 3.32 molar equivalents; IC50 [11]: 87 µM |
| Cn1cccc2nc3ccccc3c1-2 [listing 2 of 2 here] | 86.1 | – | – | 0.38 | 132 | IC50 [2]: > 95 µM; IC50 [3]: > 95 µM |
| CCc1c2[nH]c3ccccc3c2c(OC)c[n+]1C | – | – | – | – | – | IC50 [7]: < 1 µM; IC50 [8]: > 10 µM; selectivity ratio [9]: > 32 |
| Cn1cc2c3ccccc3nc-2c2ccccc21 [ISOCRYPTOLEPINE HYDROCHLORIDE] | 0.52 | 1.27 | 39.1 | 0.78 | – | inhibition [10]: Active; inhibition [11]: Active |
| Cc1c2[nH]c3ccccc3c2cc[n+]1C | – | – | – | – | – | selectivity ratio [9]: 18; IC50 [19]: 5.1 µM |
| COc1c[n+](C)c(C)c2[nH]c3ccccc3c12 | – | – | – | – | – | IC50 [7]: < 1 µM; IC50 [8]: > 10 µM; selectivity ratio [9]: > 32 |
| Cn1cc2ccccc2c2nc3ccccc3c1-2 [listing 2 of 2 here] | – | – | 15.5 | 0.64 | 1.48 | IC50 [1]: 0.72 µM; IC50 [2]: 1.66 µM |
| CC1NCCc2c1[nH]c1ccccc21 (stereo not drawn) [TETRAHYDROHARMAN] | – | – | – | – | – | IC50 [16]: 7.5 µM; IC50 [17]: 403 µM; IC50 [18]: 20.1 µM |
| C=Cc1ncc(OC)c2c1[nH]c1ccc(O)cc12 | – | – | – | – | – | IC50 [12]: 13.7 µM |

Source: ChEMBL document CHEMBL1152627, “Structure-activity relationship of antiparasitic and cytotoxic indoloquinoline alkaloids, and their tricyclic and bicyclic analogues” (Bioorg Med Chem, 2009)
